Marks after values point to notes of the source that are not given here.

One data set relates to HCT-116. The data set is described as follows: Timing of apoptosis (caspase-3 activation). The conditions noted are these: Cell Line HCT-116; dosed at 30 fold above the EC50 for cytotoxicity. The format is cell-based.
In data set [1] the test system is CCRF-CEM acute lymphoblastic leukemia tumor. The data set is described as follows: CCRF-CEM xenograft model. The format is in vivo, nude mice. Conditions: q7d X3, IV, 25 mg/kg. The method, then: CCRF-CEM acute lymphoblastic leukemia tumor lobes of 2-3 mm square were transplanted subcutaneously into nude mice. Tumors were allowed to grow to approximately 8-20 mm in diameter. […] Acceptable toxicity was defined as a mean group weight loss of 30% or less and not more than one toxic death among 6 treated animals. Anti-tumor activities of the drugs were assessed 20 or 21 days after the start of administration. Table 14 provides data for tumor inhibition (TI) and survival rate in the CCRF-CEM and LM3-Jck xenograft models.

In data set [2] the test system is MO59J (DNAPKcs(−/−)) vs MO59K (DNAPKCs(+/+)). The data set is described as follows: MTT assay, sensitization (DNAPKcs(−/−)). It counts as cell-based. The method, then: (§1) Cells were then incubated with 5% MTT for 1-2 hours and lysed. MTT was colorimetrically read at 570 nm and EC50's were determined using linear regression analysis.
(§2) Sensitization was carried out with various chemical treatments.
Background: Tetrazolium dyes change colour on reduction, which living cells bring about.

The next data set has as its system HCT116 cells. Nature of the data set: High content screening and microscopy, nuclear foci (gH2AX, pATM). The format is cell-based. Conditions: HCT116 cells dosed for 6 hour. The method, then: Cells were plated as sub-confluent populations and allowed to grow for 36 hours. Cells were then treated with the compound at the given concentration for the given time period. Cells were fixed using 4% formaldehyde and permeabilized with 0.1% triton. Cells were exposed to primary antibodies for 1 hour at 25° C. at a 1:100 dilution in 10% FBS/PBS (anti-pATM—Chemicon, anti-gH2AX-Cell Signaling Technology). Cells were exposed to secondary antibodies for 1 hour at 25° C. at a 1:100 dilution in 10% FBS/PBS. Hoechst staining was carried out in 10% FBS/PBS at 500 ng/ml concentrations. High content screening was carried out on a Cellomics Arrayscan instrument using the Spot Detector algorithm. […] Cells were then fixed and analyzed for protein phosphorylation state (gH2AX images obtained using a fluorescence microscope, pATM images obtained with the ArrayScan VTi).

Data set [3] relates to HCT-116 cells treated with 2 mM caffeine. Nature of the data set: MTT assay, sensitization (caffeine). The format is cell-based. The conditions noted are these: 2 mM caffeine pre-treated for 16 hours, compound 72 hours. On the procedure: as §1, §2
A short description of data set [4]: Safety in patients with advanced or refractory acute leukemias. It counts as in vivo, human. On the procedure:
SNS-595 was administered to patients with advanced or refractory acute leukemias as a slow IV push. Diagnoses included AML (19 patients) and ALL (2 patients). All patients had disease refractory to or relapsed from prior therapy (median 3 prior regimens (range 1-6)). A total of 21 patients (9 female and 12 male; median age=64 yrs, range 21-80) were treated in five cohorts using two schedules. In the first schedule (A), a weekly dose of SNS-595 was administered for three weeks followed by 7 days off (qwk×3). In the second schedule (B), a dose of SNS-595 was administered twice a week for two weeks (biwk×2). The cycle duration, including days off, was 28 days for both schedules. […] Additional cycles were permitted if patients achieved stable disease or better. The starting dose was 18 mg/m^2 on schedule A and 9 mg/m^2 on schedule B, and dosage was escalated by cohort. Cohorts of 3-6 patients were accrued to doses using a modified Fibonacci sequence.

Consider `CN[C@H]1CN(c2ccc3c(=O)c(C(=O)O)cn(-c4nccs4)c3n2)C[C@@H]1OC` [SNS-595, (+)-1,4-dihydro-7-[(3S,4S)-3-methoxy-4-(methylamino)-1-pyrrolidinyl]-4-oxo-1-(2-thiazolyl)-1,8-naphthyridine-3-carboxylic acid], for which the “Timing of apoptosis: fraction of cell cycle to achieve 50% maximal caspase-3 activation” value in the data set on HCT-116 is recorded as 0.4. The “IR (%) (tumor inhibition rate)” value in data set [1] was 98.1* %. For the same molecule, the “sensitization, PIKK dependence” value in data set [2] (ATM/ATR or DNAPK activity inhibited or diminished) is recorded as “only when DNAPKcs activity is diminished”. Besides, the “Sensitization, fold decrease in the EC50 for cytotoxicity (MTT): DNAPKcs(−/−)” value in data set [2] (MO59J (DNAPKcs(−/−)) vs MO59K (DNAPKCs(+/+)), compound 72 hours) is listed as 10 fold. Moreover, the “nuclear foci formation (gH2AX, pATM)” value with HCT116 cells is listed as “leads to nuclear foci formation”. The “Sensitization, fold decrease in the EC50 for cytotoxicity (MTT): Caffeine” value in data set [3] came to 0.5 fold. Moreover, in data set [4] (acute leukemia patients), the “Grade 4 neutropenic fever” value is “only one patient”; the Non-dose limiting toxicities entry was “nausea/vomiting, diarrhea, and mucositis”. For the same molecule, in data set [4] (biwk x2, 1 patient), the “SAE possibly related to study drug: Infection, CTCAE v3.0 Grade” value was “Grade 3” and the “SAE possibly related to study drug: Neutropenic Fevers, CTCAE v3.0 Grade” value is on record as “Grade 4”. Also, in data set [4] (qwk x3, 1 patient), the “SAE possibly related to study drug: Infection with Neutropenia, CTCAE v3.0 Grade” value is “Grade 3” and the “SAE possibly related to study drug: Pneumonia with Neutropenia, CTCAE v3.0 Grade” value was “Grade 3”. Besides, the “dose limiting toxicities (DLTs)” value in data set [4] (up to 13.5 mg/m^2 on the biwk×2 schedule) is given as “No dose limiting toxicities”. The “dose limiting toxicities (DLTs)” value in data set [4] (up to 27 mg/m^2 on the qwk×3 schedule) is given as “No dose limiting toxicities”.

(Values after patent publication US8580814B2, “Methods of using (+)-1,4-dihydro-7-[(3S,4S)-3-methoxy-4-(methylamino)-1-pyrrolidinyl]-4- oxo-1-(2-thiazolyl)-1,8-naphthyridine-3-carboxylic acid for treatment of cancer” (priority 2006, dated 2013).)
